Data on 16 compounds can be found in patent publication US20230105212A1, “BIPHENYL DERIVATIVE INHIBITOR, PREPARATION METHOD THEREFOR AND USE THEREOF” (SHANGHAI HANSOH BIOMEDICAL CO., LTD., priority 2020, published 2023).

Where two headings read alike, the source gives them in different places.

The target in one test is T1, human PD-L1 protein (Homo sapiens, UniProt Q9NZQ7).
T1 construct: purchased Acro Biosystems PD1-H5229
The test can be described thus: Thermal shift: melting temperature of PD-L1 protein. Type of test: binding. The conditions noted are these: read-out: ΔTm (° C.). In short, it runs like this:
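Human PD-L1 at 2 μM final was tested in […], 150 mM NaCl with SYPRO Orange, heated 25→95 °C at 0.03 °C/s in a PCR melt-curve run. Tm was taken per treatment; ΔTm is the shift relative to DMSO vehicle.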

Test [1] deals with CHO-PDL1/Jurkat-PD1 cell pathway. Nature of the test: Inhibition of CHO-PDL1/Jurkat-PD1 cell pathway (NFAT luciferase reporter). The class given is cell-based. The settings on record: for EC50: 6 hours incubation, luciferase signal; for maximal fold induction: relative to the signal value of the non-dosed group, read-out: Maximum induction fold. In short, it runs like this:
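CHO-K1 cells stably expressing PD-L1, plated overnight, then co-cultured with PD-1/NFAT-luc2 Jurkat cells plus compounds in RPMI 1640 with 2% FBS for 6 h at 37 °C. Luminescence read after One-Glo, 10 min at RT. EC50 fitted from the concentration–signal curve; maximum induction fold calculated relative to the non-dosed group.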

A further test concerns the target T2, human PD-1/PD-L1 binding (Homo sapiens, UniProt Q9NZQ7).
T2 construct: PD-L1-His protein (19 to 238 amino acids) (Abcam #ab167713); purchased Abcam (PD-L1-His); R&D (PD-1-Fc) ab167713; 1086-PD
Nature of the test: Inhibition of human PD-1/PD-L1 binding (TR-FRET/HTRF). In short, it runs like this: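 PD-L1-His (aa 19–238, diluted to 10 nM) and PD-1-Fc (aa 25–167, diluted to 20 nM) incubated with compounds (10 μM or 1 μM top, 3-fold, 11 doses) 60 min at room temperature, then anti-6HIS Eu cryptate/anti-human IgG-XL665 added for 3 h RT or overnight 4 °C. HTRF 665/620 nm ratio gave inhibition and IC50.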

Where [2] appears, read: compound 10 μM, PD-L1 protein 2 μM, Tm minus DMSO vehicle control.
[3] abbreviates: TR-FRET, PD-L1-His and PD-1-Fc, read-out: PD-1/PD-L1 binding IC50.

T2 sequence (Q9NZQ7 19-238): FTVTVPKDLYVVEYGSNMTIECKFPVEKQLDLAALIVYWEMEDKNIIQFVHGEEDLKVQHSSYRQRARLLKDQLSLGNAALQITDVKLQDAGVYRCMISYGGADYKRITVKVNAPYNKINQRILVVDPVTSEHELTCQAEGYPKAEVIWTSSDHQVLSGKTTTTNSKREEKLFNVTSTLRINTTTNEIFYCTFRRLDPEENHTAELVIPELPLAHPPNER
T1 sequence (Q9NZQ7 19-238 limits assumed): as the sequence (Q9NZQ7 19-238) above

Take `COc1nc(-c2cccc(-c3cccc(NC(=O)c4nc5c(n4C)CCN(C)C5)c3Cl)c2Cl)ccc1CN[C@H]1CCOC[C@@H]1O` (relative stereo) [Embodiment 175, N-(2,2′-Dichloro-3′-(5-((((3,4-trans)-3-hydroxytetrahydro-2H-pyran-4-yl)amino)methyl)-6-methoxypyridin-2-yl)-[1,1′-biphenyl]-3-yl)-1,5-dimethyl-4,5,6,7-tetrahydro-1H-imidazo[4,5-c]pyridine-2-carboxamide]: at human PD-L1 protein (setting [2]), the ΔTm (in general, the change in melting temperature against a reference sample) at 10 µM is 18 °C. In test [1], a half-maximal effect (EC50) was put at 86 nM and the maximal fold induction came out at 3.6. Also, the IC50 on human PD-1/PD-L1 binding (setting [3]) is 4.2 nM.
For `CNC(=O)CNCc1cnc(C(=O)Nc2cccc(-c3cccc(NC(=O)c4nc5c(n4C)CCN(C)C5)c3Cl)c2C)cc1OC` [Embodiment 95, N-(2-Chloro-3′-(4-methoxy-5-(((2-(methylamino)-2-carbonylethyl)amino)methyl)picolinamido)-2′-methyl-[1,1′-biphenyl]-3-yl)-1,5-dimethyl-4,5,6,7-tetrahydro-1H-imidazo[4,5-c]pyridine-2-carboxamide], on human PD-L1 protein (setting [2]), the ΔTm at 10 µM was 14.4 °C. Further, in test [1], a half-maximal effect (EC50) was put at 94 nM and the maximal fold induction was found to be 3.8. Moreover, the IC50 at human PD-1/PD-L1 binding (setting [3]) stood at 2.4 nM.
With `COc1nc(-c2cccc(-c3cccc(NC(=O)c4nc5c(n4C)CCN(C)C5)c3Cl)c2Cl)ccc1CNC1COC1` [Embodiment 114, N-(2,2′-Dichloro-3′-(6-methoxy-5-((oxetan-3-ylamino)methyl)pyridin-2-yl)-[1,1′-biphenyl]-3-yl)-1,5-dimethyl-4,5,6,7-tetrahydro-1H-imidazo[4,5-c]pyridine-2-carboxamide], the thermal shift (ΔTm) at 10 µM on human PD-L1 protein (setting [2]) was found to be 17.9 °C. Besides, the IC50 at human PD-1/PD-L1 binding (setting [3]) was 4.3 nM.
In the case of `COc1nc(-c2cccc(-c3cccc(NC(=O)c4nc5c(n4C)CCN(C)C5)c3Cl)c2Cl)ccc1CN1CC(F)C1` [Embodiment 120, N-(2,2′-Dichloro-3′-(5-((3-fluoroazetidin-1-yl)methyl)-6-methoxypyridin-2-yl)-[1,1′-biphenyl]-3-yl)-1,5-dimethyl-4,5,6,7-tetrahydro-1H-imidazo[4,5-c]pyridine-2-carboxamide], at human PD-L1 protein, the shift in melting temperature (ΔTm) at 10 µM was 15.8 °C. Also, in test [1], the 50% effective concentration (EC50) (commonly the concentration that produces a half-maximal response) came out at 70 nM and the maximal fold induction came out at 3.2. Further, on human PD-1/PD-L1 binding (setting [3]), the IC50 stood at 7.4 nM.
Turning to `COc1nc(-c2cccc(-c3cccc(NC(=O)c4nc5c(n4C)CCN(C)C5)c3Cl)c2Cl)ccc1CN1CC2(C1)CN(C(C)=O)C2` [Embodiment 123, N-(3′-(5-((6-Acetyl-2,6-diazaspiro[3.3]heptan-2-yl)methyl)-6-methoxypyridin-2-yl)-2,2′-dichloro-[1,1′-biphenyl]-3-yl)-1,5-dimethyl-4,5,6,7-tetrahydro-1H-imidazo[4,5-c]pyridine-2-carboxamide], the thermal shift (ΔTm) at 10 µM at human PD-L1 protein turned out to be 16.5 °C. For the same compound, in test [1], the EC50 amounted to 27 nM and the maximal fold induction was determined as 3.4. Moreover, the IC50 at human PD-1/PD-L1 binding (setting [3]) came to 1.6 nM.
As to `COc1nc(-c2cccc(-c3cccc(NC(=O)c4nc5c(n4C)CCN(C)C5)c3Cl)c2Cl)ccc1CN1CC2(COC2)C1` [Embodiment 124, N-(3′-(5-((2-Oxa-6-azaspiro[3.3]heptan-6-yl)methyl)-6-methoxypyridin-2-yl)-2,2′-dichloro-[1,1′-biphenyl]-3-yl)-1,5-dimethyl-4,5,6,7-tetrahydro-1H-imidazo[4,5-c]pyridine-2-carboxamide], the shift in melting temperature (ΔTm) at 10 µM on human PD-L1 protein (setting [2]) came out at 16.2 °C. For the same compound, on human PD-1/PD-L1 binding (setting [3]), the IC50 amounted to 3.8 nM.
On to `COc1nc(-c2cccc(-c3cccc(NC(=O)c4nc5c(n4C)CCN(C)C5)c3Cl)c2Cl)ccc1CN1CC2(CCC(=O)N2)C1` [Embodiment 126, N-(2,2′-Dichloro-3′-(6-methoxy-5-((6-carbonyl-2,5-diazaspiro[3.4]octan-2-yl)methyl)pyridin-2-yl)-[1,1′-biphenyl]-3-yl)-1,5-dimethyl-4,5,6,7-tetrahydro-1H-imidazo[4,5-c]pyridine-2-carboxamide], for which, on human PD-L1 protein (setting [2]), the shift in melting temperature (ΔTm) at 10 µM stood at 17.1 °C. Further, in test [1], the response was half-maximal at 94 nM (EC50) and the maximal fold induction turned out to be 3.5. Besides, the IC50 at human PD-1/PD-L1 binding (setting [3]) was determined as 2 nM.
In the case of `COc1nc(-c2cccc(-c3cccc(NC(=O)c4nc5c(n4C)CCN(C)C5)c3Cl)c2Cl)ccc1CNC[C@H](C)O` [Embodiment 127, (S)—N-(2,2′-Dichloro-3′-(5-(((2-hydroxypropyl)amino)methyl)-6-methoxypyridin-2-yl)-[1,1′-biphenyl]-3-yl)-1,5-dimethyl-4,5,6,7-tetrahydro-1H-imidazo[4,5-c]pyridine-2-carboxamide], on human PD-L1 protein (setting [2]), the ΔTm at 10 µM stood at 18.7 °C. Also, the IC50 on human PD-1/PD-L1 binding (setting [3]) amounted to 4.6 nM.
As for `COc1nc(-c2cccc(-c3cccc(NC(=O)c4nc5c(n4C)CCN(C)C5)c3Cl)c2Cl)cnc1CN1CC2(C1)CN(C(C)=O)C2` [Embodiment 152, N-(3′-(5-((6-Acetyl-2,6-diazaspiro[3.3]heptan-2-yl)methyl)-6-methoxypyrazin-2-yl)-2,2′-dichloro-[1,1′-biphenyl]-3-yl)-1,5-dimethyl-4,5,6,7-tetrahydro-1H-imidazo[4,5-c]pyridine-2-carboxamide], the ΔTm at 10 µM on human PD-L1 protein (setting [2]) worked out at 16.8 °C. For the same compound, in test [1], the concentration giving a half-maximal response (EC50) came to 66 nM and the maximal fold induction was 3.4. The IC50 on human PD-1/PD-L1 binding (setting [3]) amounted to 1.3 nM.
On to `COc1nc(-c2cccc(-c3cccc(NC(=O)c4nc5c(n4C)CCN(C)C5)c3Cl)c2Cl)ccc1CN1CC(O)(CO)C1` [Embodiment 173, N-(2,2′-Dichloro-3′-(5-((3-hydroxy-3-(hydroxymethyl)azetidin-1-yl)methyl)-6-methoxypyridin-2-yl)-[1,1-biphenyl]-3-yl)-1,5-dimethyl-4,5,6,7-tetrahydro-1H-imidazo[4,5-c]pyridine-2-carboxamide], for which the ΔTm at 10 µM at human PD-L1 protein (setting [2]) is 13.5 °C. In addition, in test [1], the 50% effective concentration (EC50) came out at 82 nM and the maximal fold induction stood at 3.7. For the same compound, the IC50 on human PD-1/PD-L1 binding (setting [3]) was 3 nM.
With `COc1nc(-c2cccc(-c3cccc(NC(=O)c4nc5c(n4C)CCN(C)C5)c3Cl)c2Cl)ccc1CNC(CO)CO` [Embodiment 174, N-(2,2′-Dichloro-3′-(5-(((1,3-dihydroxypropan-2-yl)amino)methyl)-6-methoxypyridin-2-yl)-[1,1′-biphenyl]-3-yl)-1,5-dimethyl-4,5,6,7-tetrahydro-1H-imidazo[4,5-c]pyridine-2-carboxamide], at human PD-L1 protein (setting [2]), the thermal shift (ΔTm) at 10 µM was determined as 16.6 °C. Besides, in test [1], a half-maximal response (EC50) required 66 nM and the maximal fold induction was determined as 3.5. Also, the IC50 at human PD-1/PD-L1 binding (setting [3]) is 3 nM.
The matching figures for `COc1nc(-c2cccc(-c3cccc(NC(=O)c4nc5c(n4C)CCN(C)C5)c3Cl)c2Cl)ccc1CN1CC(NC(C)=O)C1` [Embodiment 180, N-(3′-(5-((3-Acetylaminoazetidin-1-yl)methyl)-6-methoxypyridin-2-yl)-2,2′-dichloro-[1,1′-biphenyl]-3-yl)-1,5-dimethyl-4,5,6,7-tetrahydro-1H-imidazo[4,5-c]pyridine-2-carboxamide]: 20.6 °C, 47 nM, 3.1 and 3.8 nM.
For `COc1nc(-c2cccc(-c3cccc(NC(=O)c4nc5c(n4C)CCN(C)C5)c3Cl)c2Cl)ccc1CN1CC(C(=O)N(C)C)C1` [Embodiment 183, N-(2,2′-Dichloro-3′-(5-((3-(dimethylcarbamoyl)azetidin-1-yl)methyl)-6-methoxypyridin-2-yl)-[1,1′-biphenyl]-3-yl)-1,5-dimethyl-4,5,6,7-tetrahydro-1H-imidazo[4,5-c]pyridine-2-carboxamide], on human PD-L1 protein (setting [2]), the ΔTm at 10 µM was found to be 21 °C. The IC50 at human PD-1/PD-L1 binding (setting [3]) is 4.7 nM.
`COc1nc(-c2cccc(-c3cccc(NC(=O)c4nc5c(n4C)CCN(C)C5)c3Cl)c2Cl)ccc1CN1CC2(C1)CN(C(=O)C(C)C)C2` [Embodiment 186, N-(2,2′-Dichloro-3′-(5-((6-isobutyryl-2,6-diazaspiro[3.3]heptan-2-yl)methyl)-6-methoxypyridin-2-yl)-[1,1′-biphenyl]-3-yl)-1,5-dimethyl-4,5,6,7-tetrahydro-1H-imidazo[4,5-c]pyridine-2-carboxamide]: the ΔTm at 10 µM on human PD-L1 protein (setting [2]) was determined as 21.4 °C. For the same compound, in test [1], a half-maximal effect (EC50) was put at 61 nM and the maximal fold induction stood at 3. Besides, the IC50 on human PD-1/PD-L1 binding (setting [3]) was found to be 8.1 nM.
Consider `CCC(=O)N1CC2(CN(Cc3ccc(-c4cccc(-c5cccc(NC(=O)c6nc7c(n6C)CCN(C)C7)c5Cl)c4Cl)nc3OC)C2)C1` [Embodiment 188, N-(2,2′-Dichloro-3′-(6-methoxy-5-((6-propionyl-2,6-diazaspiro[3.3]heptan-2-yl)methyl)pyridin-2-yl)-[1,1′-biphenyl]-3-yl)-1,5-dimethyl-4,5,6,7-tetrahydro-1H-imidazo[4,5-c]pyridine-2-carboxamide], for which, on human PD-L1 protein, the thermal shift (ΔTm) at 10 µM came to 16.5 °C. For the same compound, in test [1], the 50% effective concentration (EC50) amounted to 93 nM and the maximal fold induction is 3.8. At human PD-1/PD-L1 binding, the IC50 was 6.3 nM.
Consider `COc1nc(-c2cccc(-c3cccc(NC(=O)c4nc5c(n4C)CCN(C)C5)c3Cl)c2Cl)ncc1CN1CC(CNC(C)=O)C1` [Embodiment 225, N-(3′-(5-((3-(Acetylaminomethyl)azetidin-1-yl)methyl)-4-methoxypyrimidin-2-yl)-2,2′-dichloro-[1,1′-biphenyl]-3-yl)-1,5-dimethyl-4,5,6,7-tetrahydro-1H-imidazo[4,5-c]pyridine-2-carboxamide], for which the IC50 at human PD-1/PD-L1 binding (setting [3]) came out at 4.5 nM.
